Values belong to the compound of their own block, whether it stands above or below them.
Experiments:
[1] = target: T1, human GLP-1R receptor (Homo sapiens, UniProt P43220); assay: GLP-1R low expression cell assay (cAMP TR-FRET, CHO-K1_hGLP-1Rlow_clone10); assay type: cell-based; conditions: CHO-K1_hGLP-1Rlow_clone10 cells
T1 construct: expressed in transfected cells
Description: Stable cell lines expressing high and low GLP-1R surface expression were generated in CHO-K1 cells transfected (Fugene 6) with a puromycin selectable DNA plasmid encoding human GLP-1R receptor (accession number: NM_002062.5) under control of an EF1A promoter. Transfected cells were seeded into 24-well plates (9,000 cells/well) containing complete medium and incubated in a humidified incubator at 37° C. with 5% carbon dioxide. After overnight incubation, medium was replaced with complete medium supplemented with puromycin (6 μg/mL) and refreshed every 2-3 days to select for stably transfected cells. Individual pools of selected cells were expanded prior to analysis for responsiveness to GLP-1 control peptide using a TR-FRET assay to detect cAMP (LANCE Ultra CAMP Assay, Perkin Elmer). Briefly, cells were collected in Versene solution, plated in 384-well plates (1,000 cells/well) and combined with serially diluted GLP-1R control peptide (10 nL) using an acoustic dispenser (ECHO). Plates were incubated for 30 minutes at 25° C. prior to the addition of EU-CAMP tracer (5 μL) and Ulight-anti-cAMP (5 μL) reagents to each well, followed by 15 minutes incubation at 25° C. TR-FRET signal was detected using an En Vision Multimode Plate Reader (excitation=320 nm; emission=615 and 655 nm). Dose-response curves were used to generate EC50 values as a measure of responsiveness to the GLP-1R control peptide. Selected cell lines were monitored for responsiveness over multiple passages to ensure stability. […] Briefly, GLP-1R expression was analyzed by flow cytometry using a fluorescein-labeled Exendin-4 peptide fluorescent probe (FLEX). Cells were harvested in Versene solution and washed 3-times with PBS+0.5% BSA before incubation with FLEX reagent (10 μM) for 2 hours at room temperature. After incubation, cells were washed 3-times in PBS+0.5% BSA before final resuspension in PBS prior to analysis by flow cytometry to measure FLEX mean fluorescence intensity (MFI) as a measure of GLP-1R expression on the cell surface.
For compound testing in the CHO-K1_hGLP-1Rlow_clone10 cell line, cells were seeded in 384-well plates (1,000 cells/well). Test compounds were serially diluted in DMSO (10-point, 3-fold dilution), added to wells using an ECHO dispenser (10 nL/well) and plates were centrifuged for 1 min and agitated for 2 min at room temperature prior to 30-minute incubation at 25° C. After incubation, Eu-CAMP (5 μL) and Ulight-anti-cAMP (5 μL) reagents were added to each well, followed by centrifugation for 1 minute, agitation for 2 minutes at room temperature, and final incubation of the plates at 25° C. for 15 minutes. Plates were read using an EnVision microplate reader (excitation=320 nm; emission=615 and 655 nm). Dose-response curves were generated from duplicate wells based on percent activation calculated relative to a control GLP-1 peptide agonist that was run in parallel. EC50 values were determined by fitting percent activation as a function of compound concentration using the Hill equation (XLfit).
Stable cell lines expressing high and low GLP-1R surface expression were generated in CHO-K1 cells transfected (Fugene 6) with a puromycin selectable DNA plasmid encoding human GLP-1R receptor (accession number: NM_002062.5) under control of an EF1A promoter. Transfected cells were seeded into 24-well plates (9,000 cells/well) containing complete medium and incubated in a humidified incubator at 37° C. with 5% carbon dioxide. After overnight incubation, medium was replaced with complete medium supplemented with puromycin (6 μg/mL) and refreshed every 2-3 days to select for stably transfected cells. Individual pools of selected cells were expanded prior to analysis for responsiveness to GLP-1 control peptide using a TR-FRET assay to detect cAMP (LANCE Ultra CAMP Assay, Perkin Elmer).

[2] = system: rat hepatocytes; assay: Metabolic stability in rat hepatocytes; assay type: in vitro ADME
Description: (§1) Test compounds were incubated in rat and human hepatocytes and stability was assessed from the substrate […] approach. Test compounds were dissolved in dimethyl sulfoxide (DMSO) to create a 10 mM Stock, and then further diluted to create a 1000× Working Stock of 1 mM with DMSO in 96-well plates for test compounds and the positive control (midazolam). Vials containing cryopreserved hepatocytes were removed from the liquid nitrogen tank and immediately immersed in a 37° C. water bath. The vials were shaken gently until the contents had thawed and were then immediately emptied into 48 mL of pre-warmed HT Medium in a 50 mL conical tube. Cells remaining in the vial were resuspended with 1.0 mL of pre-warmed HT Medium and added to the conical tube. The tube was capped and then gently inverted several times to resuspend the hepatocytes. The cell suspension was centrifuged at 50×g at room temperature for 5 minutes and the supernatant discarded. The cell pellet was loosened by gently swirling the centrifuge tube and was re-suspended in 4 mL of warm Dulbecco's Modified Eagle medium (DMEM). Cell density was determined by a cell counter by Nexcelom, and DMEM medium was added to obtain a target density of 1×10^6 cells/mL. The assay was carried out in 96-well microtiter plates. Test Compounds were incubated at 1 μM with 1×10^6 cells/mL hepatocytes in DMEM for 0, 30, 60, 120 and 240 minutes. The incubation was carried out with gentle shaking at 37° C. under a humid atmosphere of 95% air/5% CO2. The volume of the incubation mixture was 37 μL with a final 0.1% DMSO. At each of the time points, the incubation was stopped by adding 150 μL quenching solution (100% acetonitrile, 0.1% formic acid containing bucetin as an internal standard for positive ESI mode). Subsequently, the mixtures were vortexed for 20 min and centrifuged at 4,000 RPM at 10° C. The supernatant (80 μL) was transferred to a clean 96-well plate and analyzed by LC-MS/MS. Midazolam at 1 μM with a final 0.1% DMSO was included as a positive control to verify assay performance. The percent parent remaining, intrinsic and predicted hepatic clearance and t1/2 were calculated. All samples were analyzed by LC-MS/MS using an AB Sciex API 4000 instrument, coupled to a Shimadzu LC-20AD LC Pump system. Separation was achieved using a Waters Atlantis T3 dC18 reverse phase HPLC column (20 mm×2.1 mm) at a flow rate of 0.5 mL/min. The mobile phase consisted of 0.1% formic acid in water (solvent A) and 0.1% formic acid in 100% acetonitrile (solvent B). Elution conditions are detailed below.
(§2) The ion optics of each test compound were optimized for their declustering potential (DP), […] (CE), collision-cell exit potential (CXP) and used in a selected ion monitoring experiment in the positive ion mode. The peak area ratio of each test compound to internal standard was then evaluated for stability. The extent of metabolism was calculated based on the disappearance of the test compound, compared to its initial concentration. The initial rates of clearance of the test compound were calculated using the linear regression plot of semi-log % remaining of the compound versus time. The elimination rate constant (k) of the linear regression plot was then used to determine t1/2 and the intrinsic clearance (CLint) using the following formula, where Chepatocyte (million cells/mL) is the cell density of the incubation:
(§3) The predicted hepatic clearance (CLhep) was calculated using the well stirred method with the following formula with CLint(in vivo) normalized based on liver weight: […]
(§4) The relevant physiological parameters of liver weight, blood flow, and hepatocellularity for various species are listed below: […]

[3] = Metabolic stability in rat hepatocytes; assay type: in vitro ADME; conditions: cryopreserved hepatocytes, 1 μM
Description: as §1, §2, §3, §4

[4] = Metabolic stability in human hepatocytes; assay type: in vitro ADME; conditions: cryopreserved hepatocytes; human hepatocytes, 1 μM
Description: as §1, §2, §3, §4

[5] = Rat pharmacokinetics, oral dosing; assay type: in vivo, Sprague-Dawley rats; conditions: for Cmax / AUC(0-t) / half-life: male, Sprague-Dawley, rat plasma
Description: Oral dosing: Compounds were formulated at 0.3 mg/mL or 0.6 mg/mL in a solution comprising 5% polyethylene glycol 400 and 95% (12% (w/v) sulfobutyl-β-cyclodextrin in water) (v/v). Formulated compounds were administered to male, 7-11 week old Sprague-Dawley rats by oral gavage at a dose of 3 mg/kg.
Sample collection: Blood collections of about 0.2 mL per time point were performed from jugular vein or other suitable site of each animal, into pre-chilled commercial EDTA-K2 tubes and placed on wet ice until centrifugation. Blood samples were processed for plasma by centrifugation at approximately 4° C., 3,200 g for 10 min. Plasma was collected and transferred into pre-labeled 96 well plate or polypropylene tubes, quick frozen over dry ice and kept at −60° C. or lower until LC-MS/MS analysis.
Data analysis: Plasma concentration versus time data was plotted in graph and analyzed by non-compartmental approaches using the Phoenix WinNonlin 6.3 software program. Related PK parameters were calculated according to dosing route, e.g., CL, Vdss and C0 for intravenous administration, Cmax, Tmax or % F for extravascular administration, and T1/2, AUC(0-t), AUC(0-inf), MRT(0-t), MRT(0-inf) for all routes.

[6] = rat, plasma, po, 3 mg/kg, 3 mg/kg PO (0.3 mg/mL)

T1 sequence (P43220 24-463): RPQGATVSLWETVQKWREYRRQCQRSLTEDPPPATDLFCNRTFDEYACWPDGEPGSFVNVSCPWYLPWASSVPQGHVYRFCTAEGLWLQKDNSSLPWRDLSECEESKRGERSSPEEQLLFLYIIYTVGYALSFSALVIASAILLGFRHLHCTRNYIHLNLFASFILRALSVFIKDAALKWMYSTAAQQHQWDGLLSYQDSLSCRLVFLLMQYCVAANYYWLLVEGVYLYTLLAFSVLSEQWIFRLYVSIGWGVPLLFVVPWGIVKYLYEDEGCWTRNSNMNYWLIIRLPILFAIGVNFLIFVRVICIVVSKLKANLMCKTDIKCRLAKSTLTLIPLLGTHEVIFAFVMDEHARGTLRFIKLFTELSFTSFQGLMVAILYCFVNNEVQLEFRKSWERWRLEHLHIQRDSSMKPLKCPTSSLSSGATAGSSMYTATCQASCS

Compound: N#Cc1ccc(COc2cccc(C3CCN(Cc4nc5ccc(C(=O)O)cc5n4Cc4nccs4)CC3)n2)c(F)c1 [Compound 1]
EC50 [1]: 50.1 nM

Compound: Cc1ncsc1Cn1c(CN2CCC3(c4cccc(OCc5ccc(C#N)cc5F)n4)CC3C2)nc2ccc(C(=O)O)cc21 (stereo not shown) [Compound 12]
EC50 [1]: 232 nM
CLint relative to reference standard [2]: significantly increased
Half-life relative to reference [2]: significantly lower
CLint scaled at 1 μM [3]: 91.7 ± 1.76 mL/min/kg
half-life at 1 μM [3]: 0.604 ± 0.0117 h
CLint scaled at 1 μM [4]: 26.8 ± 0.8 mL/min/kg
half-life at 1 μM [4]: 1.49 ± 0.0445 h

Compound: C=Cc1ncsc1Cn1c(CN2CCC(c3cccc(OCc4nc5c(F)cc(C#N)cc5s4)n3)CC2)nc2ccc(C(=O)O)cc21 [Compound 7]
EC50 [1]: 90.6 nM

Compound: N#Cc1cc(F)c2nc(COc3cccc(C4CCN(Cc5nc6ccc(C(=O)O)cc6n5Cc5ccns5)CC4)n3)sc2c1 [Compound 9]
EC50 [1]: 16.6 nM

Compound: N#Cc1cc(F)c2nc(COc3cccc(C4CCN(Cc5nc6ccc(C(=O)O)cc6n5Cc5scnc5Br)CC4)n3)sc2c1 [Compound 6]
EC50 [1]: 135 nM

Compound: N#Cc1cc(F)c2nc(COc3cccc(C4CCN(Cc5nc6ccc(C(=O)O)cc6n5Cc5cncs5)CC4)n3)sc2c1 [Compound 5]
EC50 [1]: 5.4 nM

Compound: O=C(O)c1ccc2nc(CN3CC[C@@]4(c5cccc(OCc6ccc(Cl)cc6F)n5)C[C@H]4C3)n(Cc3cncs3)c2c1 [Compound 25]
EC50 [1]: 24.4 nM
Cmax ([5]; rat, plasma, po, 3 mg/kg, 3 mg/kg PO (0.6 mg/mL)): 412 ± 98.3 ng/mL
AUC(0-t) ([5]; 3 mg/kg PO (0.6 mg/mL)): 558 ± 100 ng·h/mL
half-life ([5]; 3 mg/kg PO (0.6 mg/mL)): 1.52 ± 0.21 h
PK properties relative to Reference Compound A ([5]; rat, dosed orally): similarly improved PK properties

Compound: N#Cc1ccc(COc2cccc(C3CCN(Cc4nc5ccc(C(=O)O)cc5n4Cc4scnc4Cl)CC3)n2)c(F)c1 [Compound 15]
EC50 [1]: 25.8 nM

Compound: Cc1scnc1Cn1c(CN2CCC(c3cccc(OCc4nc5c(F)cc(C#N)cc5s4)n3)CC2)nc2ccc(C(=O)O)cc21 [Compound 11]
EC50 [1]: 292 nM

Compound: COc1ccsc1Cn1c(CN2CCC(c3cccc(OCc4nc5c(F)cc(C#N)cc5s4)n3)CC2)nc2ccc(C(=O)O)cc21 [Compound 10]
EC50 [1]: 393 nM

Compound: CCc1ncsc1Cn1c(CN2CCC(c3cccc(OCc4nc5c(F)cc(C#N)cc5s4)n3)CC2)nc2ccc(C(=O)O)cc21 [Compound 8]
EC50 [1]: 360 nM

Compound: N#Cc1cc(F)c2c(c1)CCN(c1cccc(C3CCN(Cc4nc5ccc(C(=O)O)cc5n4Cc4cncs4)CC3)n1)C2 [Compound 3]
EC50 [1]: 44.2 nM
AUC(0-t) [5, 6]: 116 ± 23.2 ng·h/mL
Cmax [5, 6]: 79.8 ± 24.4 ng/mL
half-life [5, 6]: 1.1 ± 0.29 h

Compound: CCc1scnc1Cn1c(CN2CCC(c3cccc(OCc4nc5c(F)cc(C#N)cc5s4)n3)CC2)nc2ccc(C(=O)O)cc21 [Compound 13]
EC50 [1]: 724 nM
Half-life relative to reference [2]: significantly lower

Second part, the compound after the results:

EC50 [1]: 4 nM
CLint relative to reference standard [2]: significantly lower
Half-life relative to reference [2]: significantly higher
CLint scaled at 1 μM [3]: 24.1 ± 0.83 mL/min/kg
half-life at 1 μM [3]: 2.3 ± 0.0792 h
CLint scaled at 1 μM [4]: 20.9 ± 0.98 mL/min/kg
half-life at 1 μM [4]: 1.92 ± 0.0905 h
Compound: [2H]C([2H])(Oc1cccc(C2CCN(Cc3nc4ccc(C(=O)O)cc4n3Cc3cncs3)CC2)n1)c1ccc(Cl)cc1F [Compound 26]

EC50 [1]: 87.5 nM
Compound: O=C(O)c1ccc2nc(CN3CC[C@@]4(c5nccc(OCc6ccc(Cl)cc6F)n5)C[C@H]4C3)n(Cc3cncs3)c2c1 [Compound 22]

EC50 [1]: 15.1 nM
Compound: O=C(O)c1ccc2nc(CN3CC[C@]4(c5cccc(OCc6ccc(Cl)cc6F)n5)C[C@@H]4C3)n(Cc3cncs3)c2c1 [Compound 24]

EC50 [1]: 161 nM
Compound: N#Cc1ccc(COc2ccnc([C@@]34CCN(Cc5nc6ccc(C(=O)O)cc6n5Cc5cncs5)C[C@@H]3C4)n2)c(F)c1 [Compound 19]

EC50 [1]: 6.6 nM
Compound: O=C(O)c1ccc2nc(CN3CC[C@]4(c5nccc(OCc6ccc(Cl)cc6F)n5)C[C@@H]4C3)n(Cc3cncs3)c2c1 [Compound 21]

EC50 [1]: 3.3 nM
CLint relative to reference standard [2]: significantly increased
Half-life relative to reference [2]: significantly lower
CLint scaled at 1 μM [3]: 57.9 ± 1.25 mL/min/kg
half-life at 1 μM [3]: 0.957 ± 0.0205 h
CLint scaled at 1 μM [4]: 42.3 ± 1.59 mL/min/kg
half-life at 1 μM [4]: 1.11 ± 0.0523 h
Compound: O=C(O)c1ccc2nc(CN3CCC(c4nccc(OCc5ccc(Cl)cc5F)n4)CC3)n(Cc3cncs3)c2c1 [Compound 23]

EC50 [1]: 9.9 nM
Compound: N#Cc1ccc(COc2ccnc([C@]34CCN(Cc5nc6ccc(C(=O)O)cc6n5Cc5cncs5)C[C@H]3C4)n2)c(F)c1 [Compound 18]

Reference: patent publication US12522596B2, “Compounds as GLP-1R agonists” (Terns Pharmaceuticals, Inc., priority 2021, dated 2026)
